This passage reports Ki results from patent publication US9487501B2, “Pyrazole carboxamide compounds and uses thereof” (Hoffmann-La Roche Inc., priority 2012, dated 2016).

One assay deals with mouse TAAR1 (Mus musculus (Mouse), UniProt Q923Y8). Description: Radioligand binding assay on mouse TAAR1.
Another assay concerns the target rat TAAR1 (Rattus norvegicus (Rat), UniProt Q923Y9). Description: Radioligand binding assay on rat TAAR1.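 Also: stably transfected HEK293 cell membranes with a tritiated radioligand, 1 h incubation at 4 °C, nonspecific binding taken as binding with 10 µM unlabeled ligand.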
The mark [1] stands for this setting: read-out: Ki (μM) mouse, mouse TAAR1, membranes of HEK-293 cells, radioligand displacement.
[2] abbreviates: read-out: Ki (μM) rat, rat TAAR1, membranes of HEK-293 cells, radioligand displacement.

SMILES strings stand for the structures. Where a name gives a salt, the structure may show the parent alone. Read-outs that look alike come from different tables or passages of the source.

mouse TAAR1, sequence (Q923Y8 whole entry): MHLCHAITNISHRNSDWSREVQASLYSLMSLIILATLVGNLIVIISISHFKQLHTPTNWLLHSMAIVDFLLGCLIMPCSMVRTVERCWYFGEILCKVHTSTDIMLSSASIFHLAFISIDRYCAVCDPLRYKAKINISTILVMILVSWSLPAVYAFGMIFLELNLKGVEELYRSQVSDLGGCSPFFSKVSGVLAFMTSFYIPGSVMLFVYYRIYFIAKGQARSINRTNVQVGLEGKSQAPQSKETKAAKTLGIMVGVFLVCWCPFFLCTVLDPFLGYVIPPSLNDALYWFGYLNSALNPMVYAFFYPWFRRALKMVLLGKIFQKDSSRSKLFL
rat TAAR1, sequence (Q923Y9 whole entry): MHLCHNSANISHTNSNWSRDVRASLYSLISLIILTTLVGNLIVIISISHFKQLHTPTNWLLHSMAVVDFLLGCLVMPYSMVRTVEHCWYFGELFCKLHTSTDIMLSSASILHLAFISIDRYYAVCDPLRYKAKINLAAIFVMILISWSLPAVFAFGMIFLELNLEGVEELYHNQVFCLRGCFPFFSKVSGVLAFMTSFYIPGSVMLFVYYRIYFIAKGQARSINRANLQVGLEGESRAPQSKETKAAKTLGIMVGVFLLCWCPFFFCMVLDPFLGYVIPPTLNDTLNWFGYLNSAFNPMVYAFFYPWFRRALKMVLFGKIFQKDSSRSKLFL
Protocol for mouse TAAR1: (§1) For the generation of stably transfected cell lines HEK293 cells were transfected with the pIRESneo2 expression plasmids containing the TAAR coding sequences (described above) with Lipofectamine 2000 (Invitrogen) according to the instructions of the manufacturer, and 24 hrs post transfection the culture medium was supplemented with 1 mg/ml G418 (Sigma, Buchs, Switzerland). […] Radioligand Binding Assay on Rat TAAR1 Membrane Preparation and Radioligand Binding. […] Cells were released from culture flasks using trypsin/EDTA, harvested, washed twice with ice-cold PBS (without Ca^2+ and Mg^2+), pelleted at 1,000 rpm for 5 min at 4° C., frozen and stored at −80° C. Frozen pellets were suspended in 20 ml HEPES-NaOH (20 mM, pH 7.4) containing 10 mM EDTA and homogenized with a Polytron (PT 6000, Kinematica) at 14,000 rpm for 20 s. The homogenate was centrifuged at 48,000×g for 30 min at 4° C. Subsequently, the supernatant was removed and discarded, and the pellet resuspended in 20 ml HEPES-NaOH (20 mM, pH 7.4) containing 0.1 mM EDTA using the Polytron (20 s at 14,000 rpm). This procedure was repeated and the final pellet resuspended in HEPES-NaOH containing 0.1 mM EDTA and homogenized using the Polytron. Typically, aliquots of 2 ml membrane portions were stored at −80° C. With each new membrane batch the dissociation constant (Kd) was determined via a saturation curve. […] Nonspecific binding was defined as the amount of ^3[H]-(S)-4-[(ethyl-phenyl-amino)-methyl]-4,5-dihydro-oxazol-2-ylamine bound in the presence of 10 μM unlabeled ligand. All compounds were tested at a broad range of concentrations (10 pM to 10 μM) in duplicates. […] The 96 deep well plates were incubated for 1 hr at 4° C. Incubations were terminated by rapid filtration through Unifilter-96 plates (Packard Instrument Company) and glass filters GF/C (Perkin Elmer) presoaked for 1 hr in polyethylenimine (0.3%) and washed 3 times with 1 ml of cold binding buffer. After addition of 45 μl of Microscint 40 (PerkinElmer) the Unifilter-96 plate was sealed and after 1 hr the radioactivity counted using a TopCount Microplate Scintillation Counter (Packard Instrument Company). Radioligand Binding Assay on Mouse TAAR1 Membrane Preparation and Radioligand Binding. […] Cells were released from culture flasks using trypsin/EDTA, harvested, washed twice with ice-cold PBS (without Ca^2+ and Mg^2+), pelleted at 1,000 rpm for 5 min at 4° C., frozen and stored at −80° C. Frozen pellets were suspended in 20 ml HEPES-NaOH (20 mM, pH 7.4) containing 10 mM EDTA and homogenized with a Polytron (PT 6000, Kinematica) at 14,000 rpm for 20 s. The homogenate was centrifuged at 48,000×g for 30 min at 4° C. Subsequently, the supernatant was removed and discarded, and the pellet resuspended in 20 ml HEPES-NaOH (20 mM, pH 7.4) containing 0.1 mM EDTA using the Polytron (20 s at 14,000 rpm). This procedure was repeated and the final pellet resuspended in HEPES-NaOH containing 0.1 mM EDTA and homogenized using the Polytron. Typically, aliquots of 2 ml membrane portions were stored at −80° C. With each new membrane batch the dissociation constant (Kd) was determined via a saturation curve.
Protocol for rat TAAR1: as §1

Turning to `O=C(Nc1ccc([C@H]2CNCCO2)cc1)c1cnn(-c2ccc(Br)cn2)c1` [Example 9, (S)-1-(5-bromopyridin-2-yl)-N-(4-(morpholin-2-yl)phenyl)-1H-pyrazole-4-carboxamide hydrochloride], the results for the Ki at mouse TAAR1 (setting [1]) and on rat TAAR1 (setting [2]) were 0.0017 µM and 0.0043 µM, respectively.

As for `O=C(Nc1ccc([C@H]2CNCCO2)cc1)c1cnn(-c2nc(C(F)(F)F)cs2)c1` [Example 57, (S)—N-(4-(morpholin-2-yl)phenyl)-1-(4-(trifluoromethyl)thiazol-2-yl)-1H-pyrazole-4-carboxamide hydrochloride], the Ki on mouse TAAR1 (setting [1]) was determined as 0.0019 µM; at rat TAAR1 (setting [2]) it was 0.0011 µM.

On to `Cc1cnc(-n2cc(C(=O)Nc3ccc([C@H]4CNCCO4)cc3)cn2)cn1` [Example 40, (S)-1-(5-methylpyrazin-2-yl)-N-(4-(morpholin-2-yl)phenyl)-1H-pyrazole-4-carboxamide hydrochloride], for which the Ki came out at 0.0119 µM on mouse TAAR1 (setting [1]) and 0.126 µM at rat TAAR1 (setting [2]).

For `O=C(Nc1ccc([C@H]2CNCCO2)cc1)c1cnn(-c2ccnc(C(F)(F)F)c2)c1` [Example 50, (S)—N-(4-(morpholin-2-yl)phenyl)-1-(2-(trifluoromethyl)pyridin-4-yl)-1H-pyrazole-4-carboxamide hydrochloride], the values for the Ki at mouse TAAR1 (setting [1]) and at rat TAAR1 (setting [2]) were 0.0077 µM and 0.0038 µM, respectively.

For the compound `CCOc1cccc(-n2cc(C(=O)Nc3ccc([C@H]4CNCCO4)cc3)cn2)n1` [Example 28, (S)-1-(6-ethoxypyridin-2-yl)-N-(4-(morpholin-2-yl)phenyl)-1H-pyrazole-4-carboxamide hydrochloride], the Ki was 0.0008 µM at mouse TAAR1 (setting [1]) and 0.0022 µM on rat TAAR1 (setting [2]).

Regarding `N#Cc1cc(Br)ccc1-n1cc(C(=O)Nc2ccc([C@H]3CNCCO3)cc2)cn1` [Example 17, (S)-1-(4-bromo-2-cyanophenyl)-N-(4-(morpholin-2-yl)phenyl)-1H-pyrazole-4-carboxamide hydrochloride], the figures for the Ki on mouse TAAR1 (setting [1]) and at rat TAAR1 (setting [2]) were 0.0021 µM and 0.0015 µM, respectively.

In the case of `N#Cc1ccc(-n2cc(C(=O)Nc3ccc([C@H]4CNCCO4)cc3)cn2)cc1F` [Example 24, (S)-1-(4-cyano-3-fluorophenyl)-N-(4-(morpholin-2-yl)phenyl)-1H-pyrazole-4-carboxamide hydrochloride], the Ki at mouse TAAR1 (setting [1]) stood at 0.0175 µM; on rat TAAR1 (setting [2]), 0.0154 µM.

In the case of `O=C(Nc1ccc(C2CCCNC2)cc1)c1cnn(-c2ccc(OC(F)F)cc2)c1` (racemic) [Example 55, (RS)-1-(4-difluoromethoxy-phenyl)-1H-pyrazole-4-carboxylic acid (4-piperidin-3-yl-phenyl)-amide hydrochloride], the values for the Ki on mouse TAAR1 and at rat TAAR1 were 0.002 µM and 0.003 µM, respectively.

On to `O=C(Nc1ccc([C@H]2CNCCO2)cc1)c1cnn(-c2cccc(OC(F)F)c2)c1` [Example 22, (S)-1-(3-(difluoromethoxy)phenyl)-N-(4-(morpholin-2-yl)phenyl)-1H-pyrazole-4-carboxamide hydrochloride], for which the figures for the inhibition constant (Ki) at mouse TAAR1 (setting [1]) and on rat TAAR1 (setting [2]) were 0.001 µM and 0.0014 µM, respectively.

On to `N#Cc1ccc(-n2cc(C(=O)Nc3ccc([C@H]4CNCCO4)cc3)cn2)cc1` [Example 6, (S)-1-(4-cyanophenyl)-N-(4-(morpholin-2-yl)phenyl)-1H-pyrazole-4-carboxamide hydrochloride], for which the Ki was 0.0028 µM on mouse TAAR1 (setting [1]) and 0.007 µM at rat TAAR1 (setting [2]).

Regarding `O=C(Nc1ccc([C@H]2CNCCO2)cc1)c1cnn(-c2ccc(Cl)cn2)c1` [Example 7, (S)-1-(5-chloropyridin-2-yl)-N-(4-(morpholin-2-yl)phenyl)-1H-pyrazole-4-carboxamide hydrochloride], the Ki turned out to be 0.0016 µM on mouse TAAR1 (setting [1]) and 0.0046 µM at rat TAAR1 (setting [2]).

For `Cc1c(C(=O)Nc2ccc([C@H]3CNCCO3)cc2)cnn1-c1ccc(OC(F)F)cc1` [Example 31, (S)-1-(4-(difluoromethoxy)phenyl)-5-methyl-N-(4-(morpholin-2-yl)phenyl)-1H-pyrazole-4-carboxamide hydrochloride], the Ki at mouse TAAR1 (setting [1]) stood at 0.0013 µM; at rat TAAR1 (setting [2]) it was 0.045 µM.

As to `O=C(Nc1ccc([C@H]2CNCCO2)cc1)c1cnn(-c2ccnc(Br)c2)c1` [Example 16, (S)-1-(2-bromopyridin-4-yl)-N-(4-(morpholin-2-yl)phenyl)-1H-pyrazole-4-carboxamide hydrochloride], the Ki at mouse TAAR1 (setting [1]) worked out at 0.0035 µM; at rat TAAR1 (setting [2]), 0.0029 µM.

For the compound `O=C(Nc1ccc([C@H]2CNCCO2)cc1)c1cnn(-c2ccc3c(c2)OC(F)(F)O3)c1` [Example 29, (S)-1-(2,2-difluorobenzo[d][1,3]dioxol-5-yl)-N-(4-(morpholin-2-yl)phenyl)-1H-pyrazole-4-carboxamide hydrochloride], the Ki on mouse TAAR1 (setting [1]) amounted to 0.0023 µM; at rat TAAR1 (setting [2]), 0.0014 µM.

Consider `N#Cc1cnc(-n2cc(C(=O)Nc3ccc([C@H]4CNCCO4)cc3)cn2)cn1` [Example 42, (S)-1-(5-cyanopyrazin-2-yl)-N-(4-(morpholin-2-yl)phenyl)-1H-pyrazole-4-carboxamide hydrochloride], for which the Ki is 0.0199 µM at mouse TAAR1 (setting [1]) and 0.0326 µM at rat TAAR1 (setting [2]).

Turning to `O=C(Nc1ccc([C@H]2CNCCO2)cc1)c1cnn(-c2ccc(I)cn2)c1` [Example 10, (S)-1-(5-iodopyridin-2-yl)-N-(4-(morpholin-2-yl)phenyl)-1H-pyrazole-4-carboxamide hydrochloride], the Ki on mouse TAAR1 (setting [1]) was determined as 0.0012 µM; on rat TAAR1 (setting [2]), 0.0041 µM.

Regarding `COc1cccc(-n2cc(C(=O)Nc3ccc([C@H]4CNCCO4)cc3)cn2)n1` [Example 18, (S)-1-(6-methoxypyridin-2-yl)-N-(4-(morpholin-2-yl)phenyl)-1H-pyrazole-4-carboxamide hydrochloride], the values for the Ki on mouse TAAR1 (setting [1]) and on rat TAAR1 (setting [2]) were 0.001 µM and 0.0029 µM, respectively.

For `O=C(Nc1ccc([C@H]2CNCCO2)cc1)c1cnn(-c2ccnc(Cl)c2)c1` [Example 20, (S)-1-(2-chloropyridin-4-yl)-N-(4-(morpholin-2-yl)phenyl)-1H-pyrazole-4-carboxamide hydrochloride], the Ki at mouse TAAR1 (setting [1]) came to 0.0041 µM; on rat TAAR1 (setting [2]), 0.0059 µM.

For `O=C(Nc1ccc([C@H]2CNCCO2)cc1)c1cnn(-c2cc(Cl)ccn2)c1` [Example 15, (S)-1-(4-chloropyridin-2-yl)-N-(4-(morpholin-2-yl)phenyl)-1H-pyrazole-4-carboxamide hydrochloride], the Ki on mouse TAAR1 (setting [1]) was determined as 0.0016 µM; at rat TAAR1 (setting [2]), 0.0036 µM.

Turning to `O=C(Nc1ccc([C@H]2CNCCO2)cc1)c1cnn(-c2ccc(OC(F)(F)F)cc2)c1` [Example 26, (S)—N-(4-(morpholin-2-yl)phenyl)-1-(4-(trifluoromethoxy)phenyl)-1H-pyrazole-4-carboxamide hydrochloride], the Ki at mouse TAAR1 (setting [1]) stood at 0.0007 µM; on rat TAAR1 (setting [2]) it was 0.0005 µM.

As to `N#Cc1cncc(-n2cc(C(=O)Nc3ccc([C@H]4CNCCO4)cc3)cn2)n1` [Example 47, (S)-1-(6-cyanopyrazin-2-yl)-N-(4-(morpholin-2-yl)phenyl)-1H-pyrazole-4-carboxamide hydrochloride], the Ki on mouse TAAR1 (setting [1]) was found to be 0.0195 µM; on rat TAAR1 (setting [2]), 0.0345 µM.

`O=C(Nc1ccc([C@H]2CNCCO2)cc1)c1cnn(-c2cnc(Cl)cn2)c1` [Example 46, (S)-1-(5-chloropyrazin-2-yl)-N-(4-(morpholin-2-yl)phenyl)-1H-pyrazole-4-carboxamide hydrochloride]: the Ki on mouse TAAR1 (setting [1]) was 0.0031 µM; on rat TAAR1 (setting [2]) it was 0.0056 µM.

As a reminder, the Ki is a measure of affinity in units of concentration, obtained from inhibition or displacement.
